Patent US20090285888A1, “DERIVATIVES OF DIHYDROXYPHENYLALANINE” (priority 2006, published 2009)

Key:
[1] = test system: nucleus accumbens of a freely moving rat; experiment: In vivo microdialysis of dopamine release in the nucleus accumbens of the freely moving rat
Experimental: The arrow indicates the moment of injection (ip: intraperitoneal) of L-DOPA (25 mg/kg body weight) 30 minutes after the administration of benserazide (10 mg/kg body weight, ip).
The arrow indicates the moment of injection (ip: intraperitoneal) of L-DOPA (50 mg/kg body weight) 30 minutes after the administration of benserazide (10 mg/kg body weight, ip, in 0.9% NaCl).
The arrow indicates the moment of injection (ip: intraperitoneal) of diacetyl-DOPA-ethylene glycol α-lipoic acid (equimolar dose to 25 mg/kg body weight L-DOPA) 30 minutes after the administration of benserazide (10 mg/kg body weight, ip in 0.9% NaCl).
The arrow indicates the moment of injection (ip: intraperitoneal) of diacetyl-DOPA-ethylene glycol α-lipoic acid (equimolar dose to 50 mg/kg body weight L-DOPA) 30 minutes after the administration of benserazide (10 mg/kg body weight, ip).
Furthermore, by the method of in vivo micro dialysis of the conscious and freely moving rat, experiments were carried out to test whether the production and release of dopamine in the nucleus accumbens, a part of the brain with dense innervation of dopamine-containing nerve cells, is increased upon administration of L-DOPA or compound 1. The advantage of said method consists in the fact that the time-course of the release of the messenger dopamine from the active nerve cells can be observed in the conscious and freely moving rat. […] Said strong increase and the high concentrations are not desired since several degradation products of dopamine and the oxygen radicals formed during the degradation of dopamine have damaging effects on nerve cells.

[2] = test system: brain (striatum) of the rat; experiment: Concentration of dopamine, its metabolites, 5-HT and 5-HIAA in the striatum of benserazide-pretreated rats; assay type: in vivo; details: for 3-MT concentration in striatum (MV) / 5-HIAA concentration in striatum (MV) / 5-HT concentration in striatum (MV) / Dopac concentration in striatum (MV) / Dopamine concentration in striatum (MV) / HVA concentration in striatum (MV): 30 min after benserazide, tissue 90 min later
Experimental: (§1) The rats were pretreated with benserazide, an inhibitor of the aromatic amino acid decarboxylase, in order to reduce the degradation of the test compounds in the blood and to thus provide sufficient concentration of dopamine and α-lipoic acid in the brain. After 30 minutes, L-DOPA (standard therapy for Parkinson's disease) or compound 1, compound 2, compound 3 in doses equivalent to L-DOPA were injected into the peritoneum (intraperitoneal, ip). After a further 90 minutes, blood and brain tissue (striatum) were extracted. A lower dose (25 mg/kg body weight) and a higher dose (50 mg/kg body weight) of L-DOPA were selected.

blood plasma of rats = experiment: Concentration of dopamine, its metabolites, 5-HT and 5-HIAA in the blood plasma of benserazide-pretreated rats; assay type: in vivo, rat; details: for 3-MT concentration in blood plasma (MV) / 5-HIAA concentration in blood plasma (MV) / 5-HT concentration in blood plasma (MV) / Dopac concentration in blood plasma (MV) / Dopamine concentration in blood plasma (MV) / HVA concentration in blood plasma (MV): 30 min after benserazide, blood 90 min later; for Formation of dopamine in the blood plasma (in words): low and higher doses
Experimental: as §1

[3] = 25 mg/kg L-DOPA or L-DOPA eq. ip
[4] = 50 mg/kg L-DOPA or L-DOPA eq. ip
[5] = higher doses (50 mg/kg L-DOPA eq.)
[6] = low doses (25 mg/kg L-DOPA eq.)

| SMILES | 3-MT concentration in striatum (MV) [2, 3] [pg per mg striatum] | 5-HIAA concentration in striatum (MV) [2, 3] [pg per mg striatum] | 5-HT concentration in striatum (MV) [2, 3] [pg per mg striatum] | Dopac concentration in striatum (MV) [2, 3] [pg per mg striatum] | Dopamine concentration in striatum (MV) [2, 3] [pg per mg striatum] | HVA concentration in striatum (MV) [2, 3] [pg per mg striatum] | 3-MT concentration in striatum (MV) [2, 4] [pg per mg striatum] | 5-HIAA concentration in striatum (MV) [2, 4] [pg per mg striatum] | 5-HT concentration in striatum (MV) [2, 4] [pg per mg striatum] | Dopac concentration in striatum (MV) [2, 4] [pg per mg striatum] | Dopamine concentration in striatum (MV) [2, 4] [pg per mg striatum] | HVA concentration in striatum (MV) [2, 4] [pg per mg striatum] | Effect on the concentrations of dopamine in striatum (in words) [2, 5] | Effect on the metabolites DOPAC and HVA in striatum (in words) [2, 5] | Effect on the concentrations of dopamine in striatum (in words) [2, 6] | Effect on the metabolites DOPAC and HVA in striatum (in words) [2, 6] | 3-MT concentration in blood plasma (MV) (blood plasma of rats; [3]) [pg per ml plasma] | 5-HIAA concentration in blood plasma (MV) (blood plasma of rats; [3]) [pg per ml plasma] | 5-HT concentration in blood plasma (MV) (blood plasma of rats; [3]) [pg per ml plasma] | Dopac concentration in blood plasma (MV) (blood plasma of rats; [3]) [pg per ml plasma] | also measured |
| --- | --- | --- | --- | --- | --- | --- | --- | --- | --- | --- | --- | --- | --- | --- | --- | --- | --- | --- | --- | --- | --- |
| NC(Cc1ccc(O)c(O)c1)C(=O)O [L-DOPA, 2-amino-3-(3,4-dihydroxyphenyl)-propionic acid, reference compound] | 312 | 711 | 365 | 3017 | 10108 | 1752 | 259 | 593 | 366 | 9159 | 11844 | 4550 | led to an increase | increased | do not lead to an increase | increased | 11897 | 18687 | 3089 | 20833 | Dose dependence of dopamine release in nucleus accumbens (in words) ([1]; 25 and 50 mg/kg L-DOPA or equimolar doses, FIGS. 1-4): released in a dose-dependent manner; Time-course of dopamine concentration in nucleus accumbens microdialysate (in words) ([1]; ip, 30 min after benserazide, L-DOPA: higher dose (FIG. 1), compound 1: FIGS. 3 and 4): strongly increases; Dopamine concentration in blood plasma (MV) (blood plasma of rats; [3]): 20437 pg per ml plasma; HVA concentration in blood plasma (MV) (blood plasma of rats; [3]): 9592 pg per ml plasma; 3-MT concentration in blood plasma (MV) (blood plasma of rats; [4]): 14711 pg per ml plasma; 5-HIAA concentration in blood plasma (MV) (blood plasma of rats; [4]): 11426 pg per ml plasma; 5-HT concentration in blood plasma (MV) (blood plasma of rats; [4]): 15108 pg per ml plasma; Dopac concentration in blood plasma (MV) (blood plasma of rats; [4]): 38697 pg per ml plasma; Dopamine concentration in blood plasma (MV) (blood plasma of rats; [4]): 31519 pg per ml plasma; HVA concentration in blood plasma (MV) (blood plasma of rats; [4]): 69329 pg per ml plasma; Formation of dopamine in the blood plasma (in words) (blood plasma of rats): dopamine is formed |
| CC(=O)Oc1ccc(CC(NC(=O)CCCCC2CCSS2)C(=O)O)cc1OC(C)=O [compound 2, O,O′-diacetyl-L-DOPA-(R,S)-lipoic acid amide] | 267 | 780 | 438 | 6127 | 10512 | 1577 | 176 | 782 | 448 | 5697 | 11485 | 1742 | led to an increase | increased | do not lead to an increase | increased | 11480 | 8374 | 7966 | 52963 | Effect on the concentration of 5-HT in striatum (in words) ([2]; rat, in vivo): increased the concentration of 5-HT; Dopamine concentration in blood plasma (MV) (blood plasma of rats; [3]): 23006 pg per ml plasma; HVA concentration in blood plasma (MV) (blood plasma of rats; [3]): 44304 pg per ml plasma; 3-MT concentration in blood plasma (MV) (blood plasma of rats; [4]): 6121 pg per ml plasma; 5-HIAA concentration in blood plasma (MV) (blood plasma of rats; [4]): 12656 pg per ml plasma; 5-HT concentration in blood plasma (MV) (blood plasma of rats; [4]): 7494 pg per ml plasma; Dopac concentration in blood plasma (MV) (blood plasma of rats; [4]): 57729 pg per ml plasma; Dopamine concentration in blood plasma (MV) (blood plasma of rats; [4]): 21919 pg per ml plasma; HVA concentration in blood plasma (MV) (blood plasma of rats; [4]): 42184 pg per ml plasma; Formation of dopamine in the blood plasma (in words) (blood plasma of rats): Dopamine is also formed |
| O=C(CCCCC1CCSS1)NC(Cc1ccc(O)c(O)c1)C(=O)O [compound 3, L-DOPA-(D,L)-lipoic acid amide] | 292 | 620 | 340 | 1508 | 10539 | 1042 | 237 | 490 | 278 | 1788 | 11488 | 1244 | led to an increase | increased | do not lead to an increase | only HVA |  |  |  |  |  |
